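Protocol summary: plate cells (96-well), add compound at 5 concentrations, incubate 48 h, interpolate endpoints linearly. GI50 = concentration required for 50% inhibition of growth. Definition used: TGI = concentration required for complete inhibition of growth.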

Some test systems named below: ACHN renal; NCI-H460 lung; HL-60(TB) leukemia; HT29 colon; UACC-62 melanoma; U251 CNS; A498 renal; NCI-H522 lung; HOP-92 NSCLC.
What all share (assay): NCI-60 cell line screen, 48 h

With `CC(C)N(C(=O)C12C3C4C5(C#N)C3C1(C#N)C5C42C#N)C(C)C` (configuration not stated), the TGI in the test with ACHN renal, in the test on NCI-H460 lung, in the test with HL-60(TB) leukemia, in the test with HT29 colon, in the test with UACC-62 melanoma and in the test on U251 CNS was more than 100 µM in each case. For the same compound, the TGI in the test with A498 renal and with NCI-H522 lung was more than 100 µM in each case.

Consider `C=C[C@@H](C)[C@]1(C(=O)OC)CCCC12OCCO2`, for which the TGI in the test on ACHN renal, in the test with NCI-H460 lung, with HL-60(TB) leukemia, in the test on HOP-92 NSCLC, in the test with HT29 colon and in the test with UACC-62 melanoma was more than 100 µM each time. In addition, the TGI in the test with U251 CNS, with A498 renal and in the test with NCI-H522 lung was more than 100 µM in each case.

For the compound `CN(CCS(=O)(=O)N1C(=O)C2CCCN2C(=O)[C@@H]1Cc1ccccc1)C(=O)OCc1ccccc1` (some centres not stated), the TGI with ACHN renal was 73.4 µM; with NCI-H460 lung, more than 100 µM; in the test on HL-60(TB) leukemia, 27.4 µM; in the test with HOP-92 NSCLC, more than 100 µM; in the test with HT29 colon it was more than 100 µM; with UACC-62 melanoma it was 95.7 µM. Moreover, the TGI with U251 CNS, with A498 renal and with NCI-H522 lung was more than 100 µM each time.

In the case of `O=C(/C=C\c1ccccc1O)c1ccc(O)cc1O`, the TGI in the test on ACHN renal, with NCI-H460 lung, with HL-60(TB) leukemia, with HOP-92 NSCLC, in the test with HT29 colon and in the test on UACC-62 melanoma was more than 100 µM in each case. In addition, the TGI in the test with U251 CNS, in the test with A498 renal and in the test with NCI-H522 lung was more than 100 µM each time.

With `O=C1[C@H]2ON(c3ccccc3)C(c3ccc([N+](=O)[O-])cc3)[C@H]2C(=O)N1c1ccc(Cc2ccc(N3C(=O)[C@@H]4ON(c5ccccc5)C(c5ccc([N+](=O)[O-])cc5)[C@@H]4C3=O)cc2)cc1` (some centres not stated), the TGI in the test on ACHN renal is more than 100 µM; with NCI-H460 lung, more than 100 µM; in the test with HL-60(TB) leukemia it was more than 100 µM; in the test with HOP-92 NSCLC, 99 µM; in the test on HT29 colon, more than 100 µM; in the test with UACC-62 melanoma, more than 100 µM. In addition, the TGI in the test with U251 CNS, in the test with A498 renal and in the test on NCI-H522 lung was more than 100 µM throughout.

As for `Cc1ccc(C)c(N2C(=O)C(=O)C(c3nc4ccccc4s3)/C(=N/N)C2=O)c1` (configuration not stated), the TGI in the test with ACHN renal, with NCI-H460 lung, in the test on HL-60(TB) leukemia, in the test on HOP-92 NSCLC, in the test on HT29 colon and in the test on UACC-62 melanoma was more than 100 µM throughout. In addition, the TGI was more than 100 µM in the test with U251 CNS, more than 22.6 µM in the test with A498 renal and more than 100 µM with NCI-H522 lung.

On to `CSc1ccc2c(cc1=O)[C@@H](NC(=O)c1cccc([N+](=O)[O-])c1)CCc1cc(O)c(O)c(O)c1-2`, for which the TGI with ACHN renal was more than 100 µM; with NCI-H460 lung, more than 100 µM; in the test on HL-60(TB) leukemia, more than 100 µM; with HOP-92 NSCLC, more than 100 µM; with HT29 colon, more than 100 µM; in the test on UACC-62 melanoma, 39.2 µM. In addition, the TGI is 51.5 µM in the test with U251 CNS, 90.7 µM in the test on A498 renal and 68.2 µM in the test on NCI-H522 lung.

Consider `NCCSSCc1ccccc1CSSCCN`, for which the TGI in the test with ACHN renal was more than 100 µM; in the test on NCI-H460 lung, more than 100 µM; in the test with HL-60(TB) leukemia it was 29.6 µM; in the test on HOP-92 NSCLC, more than 100 µM; in the test on HT29 colon it was more than 100 µM; in the test on UACC-62 melanoma it was more than 100 µM. In addition, the TGI in the test on U251 CNS is more than 100 µM; in the test on A498 renal, more than 100 µM; with NCI-H522 lung, 27.8 µM.

`Cc1cnc2ccc(C)c([N+](=O)[O-])c2c1NCCCN(C)C`: the TGI with ACHN renal, in the test on NCI-H460 lung, in the test with HL-60(TB) leukemia, in the test on HT29 colon, in the test with U251 CNS and in the test on NCI-H522 lung was more than 100 µM throughout.

Turning to `C/C(=N\N=C(N)N)C(CN1CCCCC1)C(c1ccccc1)c1c(O)c2ccccc2oc1=O` (configuration not stated), the TGI in the test on ACHN renal, in the test with HL-60(TB) leukemia, in the test with HOP-92 NSCLC, in the test with HT29 colon, with UACC-62 melanoma and in the test with A498 renal was more than 100 µM throughout. The TGI with NCI-H522 lung was more than 100 µM.

On to `Cc1c(C)c2ccc3oc4ccccc4c3c2oc1=O`, for which the TGI in the test on ACHN renal, in the test with NCI-H460 lung, in the test on HL-60(TB) leukemia, in the test with HOP-92 NSCLC, in the test with HT29 colon and with UACC-62 melanoma was more than 100 µM in each case. Moreover, the TGI in the test on U251 CNS, with A498 renal and in the test on NCI-H522 lung was more than 100 µM in each case.

With `C[C@@H](Oc1cc(-n2cnc3ccc(OC4CCN(C)CC4)cc32)sc1C(N)=O)c1ccccc1Cl`, the GI50 in the test on ACHN renal was 0.212 µM; with NCI-H460 lung it was 0.0126 µM; in the test on HL-60(TB) leukemia it was 0.00871 µM; with HOP-92 NSCLC, 0.0387 µM; in the test with HT29 colon, 0.00829 µM; in the test with UACC-62 melanoma, 0.033 µM. Moreover, the figures for the GI50 in the test with U251 CNS, in the test with A498 renal and in the test with NCI-H522 lung were 0.0155 µM, 0.0403 µM and 0.0117 µM, respectively. The TGI in the test with ACHN renal amounted to 9.19 µM; in the test on NCI-H460 lung, 3.19 µM; in the test with HL-60(TB) leukemia, 2.92 µM; in the test with HOP-92 NSCLC it was 2.78 µM; with HT29 colon, 2.77 µM; with UACC-62 melanoma it was 4.62 µM. Moreover, the figures for the TGI in the test with U251 CNS, in the test on A498 renal and with NCI-H522 lung were 4.13 µM, 0.301 µM and 5.03 µM, respectively.

As for `COc1cc2cc(OC(C)=O)c3cc4c(cc3c2c(OC)c1OC)OCO4`, the TGI with ACHN renal, in the test on NCI-H460 lung, in the test on HL-60(TB) leukemia, in the test on HT29 colon, with U251 CNS and in the test with A498 renal was more than 100 µM each time. Besides, the TGI in the test with NCI-H522 lung is more than 100 µM.

On to `CCCCCCCCCCCCCCCC1=NCC[N+]1(CCO)CCO`, for which the GI50 in the test on ACHN renal was 2.53 µM; in the test with NCI-H460 lung, 1.84 µM; in the test on HL-60(TB) leukemia, 0.442 µM; with HT29 colon, 2.57 µM; in the test on UACC-62 melanoma, 1.77 µM; with U251 CNS, 1.64 µM. Also, in the test on A498 renal, the GI50 was 7.79 µM. The TGI with ACHN renal was 6.64 µM; with NCI-H460 lung, 3.47 µM; in the test with HL-60(TB) leukemia it was 2.61 µM; in the test with HT29 colon it was 9.13 µM; in the test with UACC-62 melanoma, 3.27 µM; in the test on U251 CNS it was 3.03 µM. The compound also registered a TGI in the test on A498 renal of 21.6 µM.

Source of the values: PubChem BioAssay (NCI).
